Experimental data: patent publication US10849867B2, “Methods and compositions for treating conditions associated with an abnormal inflammatory response” (First Wave Bio, Inc., priority 2015, dated 2020)

Columns and labels:
Jurkat T cells = assay: Mitochondrial transmembrane potential (ΔΨm) in Jurkat T cells, TMRM flow cytometry with oligomycin (Example 1); format: cell-based; conditions: relative to negative controls
Excerpt: Objective. […] Model. The Jurkat T cell model is commonly used to study the potential effects of compounds on T cells in vitro. This cell line allows investigation of stimuli and mechanisms that regulate T cell mitochondrial function and survival. As T cells, Jurkats have a lymphocyte appearance and replicate in culture in suspension. They contain respiring mitochondria and as such response to mitochondrial uncouplers such as niclosamide may be assessed. Uncoupling is identified and quantified by a detecting a drop in the electrochemical gradient across the mitochondrial inner membrane (ΔΨm) that is not associated with a corresponding increase in oxidative phosphorylation. […] Cell culture. Jurkat T cells were purchased from the American Type Culture Collection (Manassas, Va.) and sub-cultured according to instructions from the supplier. Prior to experiments, cells were cultured in RPMI 1640 containing 10% FBS-HI, 50 units penicillin/mL and 50 μg streptomycin/mL, and maintained in log phase prior to experimental setup. […] TMRM has been described as one of the best fluorescent dyes for dynamic and in situ quantitative measurements because it is rapidly and reversibly taken up by live cells and mitochondria. […] Ratios of the fluorescence intensity of each treated sample to the control sample mean were then calculated as a measure of relative decrease in ΔΨm. […]

human LPMCs T cells = assay: ΔΨm in human LPMC CD45+CD3+ T cells, JC-1 flow cytometry (Example 12); format: cell-based; conditions: 5 μM, 60 min, JC-1, relative to negative control
Excerpt: The Model-Lamina propria mononuclear cells (LPMC) in the human intestine are comprised in part by T cells which mediate physiological and pathological processes including inflammatory bowel disease. LPMCs can be isolated from human tissue biopsies. After isolation […] cells remain viable ex vivo under appropriate culture conditions for periods of time that allow ex vivo experiments. These cells can be used to investigate mechanisms that regulate their mitochondrial function and survival They contain respiring mitochondria and as such their response to test agents may be assessed. Uncoupling is identified and quantified by a detecting a drop in the electrochemical gradient across the mitochondrial inner membrane (ΔΨm). […] The isolated cells were counted and checked for viability using 0.1% trypan blue (viability ranged from 86% to 94%). […] A flow cytometer FACSVerse flow cytometer and FACSSuite software [BD Biosciences] was used for quantification of JC-1 fluorescence in CD45+CD3+ cells. […] Consequently, mitochondrial depolarization is indicated by a decrease in the red/green fluorescence intensity ratio. […] LPMC CD45+CD3+ T cells were first defined by their fluorescence emission from labeling with eFluor® 450-anti-CD3 antibody and PerCP-Cyanine5.5-[…] antibody. The fluorescence intensity of JC-1 detected at 525 nm and 590 nm in the CD45+CD3+ T cell population was then measured. […]

## O=C(Nc1ccc([N+](=O)[O-])cc1Cl)c1cc(Cl)ccc1O [Niclosamide, 5-chloro-N-(2-chloro-4-nitrophenyl)-2-hydroxybenzamide]
Jurkat T cells; 1-500 μM, 60 minutes, oligomycin present, TMRM
  change in ΔΨm in Jurkat cells: dose-related decrease
Jurkat T cells; Jurkat cells
  concentrations of niclosamide that significantly decreased ΔΨm (p<0.05): ≥ 5 µM
Human LPMCs T cells
  change in ΔΨm in human LPMCs T cells: decrease
